Laboratory results: patent US20060198832A1, “Peptide drugs for chronic lymphocytic leukemia (CLL) and other cancers” (priority 2004, published 2006)
Values belong to the molecule of their own block, whether it stands above or below them. Where a SMILES comes first, the peptide text is derived from it. Bridges are numbered along the chain shown (N, C = ends). Roman numbers before positions name the chains, in order. Where no end group is shown, it is not given here. [ ]: non-standard residue; d: D form. Ahx = NCCCCCC(=O)O

Key:
[1] = system: chronic lymphocytic leukemia (CLL) cells; experiment: viability/apoptosis of CLL cells electroporated with peptides (Annexin V-FITC/PI flow cytometry); format: cell-based, human; details: for cell viability (Induction of Apoptosis in CLL Cells), patient sample JCB 178: CLL patient sample JCB 178; for cell viability (Induction of Apoptosis in CLL Cells), patient sample JCB 178 / cell viability (Induction of Apoptosis in CLL Cells), patient sample MA G15 / cell viability (Induction of Apoptosis in CLL Cells), patient sample TJK 328 / cell viability (Induction of Apoptosis in CLL Cells), patient sample TJK 340 #1 / cell viability (Induction of Apoptosis in CLL Cells), patient sample TJK 340 #2 / cell viability (Induction of Apoptosis in CLL Cells), patient sample TJK 375 / cell viability (Induction of Apoptosis in CLL Cells), Av.: peptide electroporated; for cell viability (Induction of Apoptosis in CLL Cells), patient sample TJK 328: CLL patient sample TJK 328; for cell viability (Induction of Apoptosis in CLL Cells), patient sample TJK 340 #1: CLL patient sample TJK 340 #1; for cell viability (Induction of Apoptosis in CLL Cells), patient sample TJK 340 #2: CLL patient sample TJK 340 #2; for cell viability (Induction of Apoptosis in CLL Cells), patient sample TJK 375: CLL patient sample TJK 375; for cell viability (Induction of Apoptosis in CLL Cells), Av.: average of the five preceding patient sample columns; for cell viability of CLL cells / cell viability in all the patient CLL samples: electroporated peptide; for cell viability of CLL cells: FIG. 2; for cell viability in all the patient CLL samples: summary of Table 4
From the text: Peripheral blood mononuclear cells (PBMC) from patients with chronic lymphocytic leukemia (CLL) were obtained from the CLL Research Consortium (CRC) tissue bank. Briefly, heparinized peripheral blood was obtained from patients diagnosed with B-CLL according to standard criteria (Chenson et al., Blood 87:4990-4997 (1996)). Lymphocytes were isolated by Ficoll density-gradient centrifugation and verified by immunofluorescence flow cytometry to be composed of greater than 95% CD5/CD19/CD23 triple positive B cells. […] CLL cells were electroporated with a dimethyl sulfoxide (DMSO) control or peptides essentially as described in […] et al., J. Immunol. Methods 275:41-56 (2003), and […] et al., Cancer Res. 63:1242-1248 (2003). For evaluation of apoptosis, at least 5×10^5 cells were recovered by centrifugation and double-stained with Annexin V-FITC, an early marker of apoptosis, and propidium iodide (PI), a nucleic acid-binding vital dye, followed by flow-cytometric analysis using the FL-1 and FL-3 channels of a Becton Dickinson flow cytometer (FACSort; San Jose, Calif.).

[2] = Letai et al., Cancer Cell 2:183-192 (2002); cited from earlier work
BCL-2 [3] = biological target: BCL-2 (Homo sapiens, UniProt P10415); details: Letai et al., Cancer Cell 2:183-192 (2002); cited from earlier work
CLL cells = experiment: CLL cell viability, cell permeable peptides added directly to culture without electroporation; format: cell-based, human; details: for change in viability: TJK197 patient CLL cells, FIG. 4
From the text: Peripheral blood mononuclear cells (PBMC) from patients with chronic lymphocytic leukemia (CLL) were obtained from the CLL Research Consortium (CRC) tissue bank. Briefly, heparinized peripheral blood was obtained from patients diagnosed with B-CLL according to standard criteria (Chenson et al., Blood 87:4990-4997 (1996)). Lymphocytes were isolated by Ficoll density-gradient centrifugation and verified by immunofluorescence flow cytometry to be composed of greater than 95% CD5/CD19/CD23 triple positive B cells. CLL samples were incubated at 1×10^6 cells/ml in RPMI media supplemented with 10% FBS (fetal bovine serum) and 1 mM L-glutamine and antibiotics (penicillin/streptomycin) at 37° C. with 5% CO2 for 24 hours. CLL cells were electroporated with a dimethyl sulfoxide (DMSO) control or peptides essentially as described in Eksioglu-Demiralp et al., J. Immunol. Methods 275:41-56 (2003), and Schimmer et al., Cancer Res. 63:1242-1248 (2003).
For evaluation of apoptosis, at least 5×10^5 cells were recovered by centrifugation and double-stained with Annexin V-FITC, an early marker of apoptosis, and propidium iodide (PI), a nucleic acid-binding vital dye, followed by flow-cytometric analysis using the FL-1 and FL-3 channels of a Becton Dickinson flow cytometer (FACSort; San Jose, Calif.).
The wild type and modified BAD peptides fused to poly-arginine cell penetration sequences shown in Table 5 were synthesized by standard solid phase synthesis. CLL cell viability assays were performed as described above except that cell permeable peptides SEQ ID NOS: 28, 6 and 29 and the control, non-permeable peptide SEQ ID NO: 3 (see Table 5) were added directed to CLL cells in culture without electroporation.

Bcl-2 [4] = experiment: BD Cytometric Bead Assay of Bcl-2 levels in peptide treated CLL cells; format: cell-based, human; details: TJK160 and TJK357 CLL patient cells, incubated with peptide for four hours, FIG. 5
Procedure: TJK160 and TJK357 CLL patient cells were treated with the modified BAD peptide SEQ ID NO: 6 or with control peptides SEQ ID NO: 29 and SEQ ID NO: 30 essentially as described above. To determine the levels of Bcl-2 in each of the peptide treated CLL samples, a BD™ Cytometric Bead Assay (BD CBA; BD Biosciences) was used to quantitatively measure active caspase-3, cleaved PARP and Bcl-2 levels in a single sample. In this assay, soluble analytes are measured using amplified fluorescence detection and flow cytometry, with each bead in a CBA providing a capture surface for a specific protein and being analogous to an individually coated well in an ELISA plate. A single bead population with a distinct fluorescence intensity is coated with a capture antibody specific for active caspase-3 protein, cleaved PARP protein or Bcl-2 protein and subsequently resolved in the FL3 channel of a BD FACSTM brand flow cytometer. The capture bead, PE-conjugated detection antibody, and cell lysate standard or test samples are incubated together to form sandwich complexes and analyzed using BD CBA Analysis Software. Cells were lysed in 1× CBA Cell Lysis Buffer supplemented with Protease Inhibitor Cocktail according to the manufacturer's protocol. Human active caspase-3, cleaved PARP and Bcl-2 lysate standards were reconstituted in deionized water at room temperature for 15 minutes. The standard was diluted by serial dilutions using assay diluent according to the manufacturer's protocol. Capture beads were vortexed before use, and 50 μl of capture beads were transferred to each assay tube. Standard dilutions and test samples were added to the appropriate sample tubes (50 μl/tube) and incubated at room temperature for one hour. […] After addition of 300 μl of Wash Buffer, samples were analyzed by the BD FACScan or BD FACSCalibur. Samples were analyzed by the use of BD CellQuest Software, and data were acquired by the use of the BD CBA Software. […]

[5] = system: acute myelogenous leukemia (AML) cells; experiment: cell viability/apoptosis in patient AML cells; format: cell-based, human
Procedure: (§1) The peptides were tested in cell viability assays essentially as described above in Examples I and II. Experiments were carried out in 697-neo and 697-Bcl-2 cells. 697 cells are from a cell line of preB leukemic cells. 697-Bcl-2 cells have been engineered to express high levels of Bcl-2. AML-349 and AML-728 are myeloblasts (verified by FACS analysis via CD34-positivity) that were isolated from respective patients with acute myelogenous leukemia (AML).

697-neo cells = experiment: cell viability assay in 697-neo cells; format: cell-based; details: low Bcl-2, FIG. 6
Procedure: as §1

Bcl-2 family Bcl-2/x1 = Bcl-2 family Bcl-2/x1 (Homo sapiens, UniProt P10415); experiment: binding of penetratin-linked peptides to Bcl-2 (method not described)
Bcl-2 [6] = biological target: T1, Bcl-2 (UniProt P10415 1-239, limits assumed); experiment: inferred from cell viability of 697-neo against 697-Bcl2 cells
T1 construct: also called Bcl-2 protein
T1 sequence (P10415 whole entry): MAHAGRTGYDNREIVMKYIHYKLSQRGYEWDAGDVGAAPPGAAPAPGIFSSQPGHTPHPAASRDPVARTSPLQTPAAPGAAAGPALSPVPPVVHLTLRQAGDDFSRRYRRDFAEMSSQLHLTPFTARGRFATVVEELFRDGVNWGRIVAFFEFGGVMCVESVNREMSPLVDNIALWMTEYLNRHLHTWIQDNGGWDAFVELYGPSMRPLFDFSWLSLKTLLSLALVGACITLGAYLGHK

Bcl-2 family Bcl-2/x1, sequence (P10415 1-205): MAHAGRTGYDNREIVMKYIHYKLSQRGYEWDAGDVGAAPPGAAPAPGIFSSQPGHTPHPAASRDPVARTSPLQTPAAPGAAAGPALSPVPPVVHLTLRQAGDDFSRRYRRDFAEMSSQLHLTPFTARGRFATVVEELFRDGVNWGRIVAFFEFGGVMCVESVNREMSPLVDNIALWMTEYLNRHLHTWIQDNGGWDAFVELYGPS
BCL-2, sequence (P10415 whole entry, species assumed): as the sequence (P10415 whole entry) above

Molecule: CSCC[C@H](NC(=O)[C@H](CCCNC(=N)N)NC(=O)[C@H](CCCNC(=N)N)NC(=O)[C@H](CC(C)C)NC(=O)[C@H](CCC(=O)O)NC(=O)[C@H](CCCNC(=N)N)NC(=O)CNC(=O)[C@H](Cc1ccc(O)cc1)NC(=O)[C@H](CCCNC(=N)N)NC(=O)[C@H](CCC(N)=O)NC(=O)[C@H](C)NC(=O)[C@H](C)NC(=O)[C@H](Cc1c[nH]c2ccccc12)NC(=O)[C@H](CC(C)C)NC(=O)[C@@H](N)CC(N)=O)C(=O)N[C@@H](CO)C(=O)N[C@@H](CC(=O)O)C(=O)N[C@@H](CCC(=O)O)C(=O)N[C@@H](Cc1ccccc1)C(=O)N[C@H](C(=O)N[C@@H](CC(=O)O)C(=O)N[C@@H](CO)C(=O)N[C@@H](Cc1ccccc1)C(=O)N[C@@H](CCCCN)C(=O)N[C@@H](CCCCN)C(=O)O)C(C)C [SEQ ID NO: 1]
cell viability (Induction of Apoptosis in CLL Cells), patient sample JCB 178 [1]: 45%
cell viability (Induction of Apoptosis in CLL Cells), patient sample MA G15 [1]: 4%
cell viability (Induction of Apoptosis in CLL Cells), patient sample TJK 328 [1]: 42%
cell viability (Induction of Apoptosis in CLL Cells), patient sample TJK 340 #1 [1]: 46%
cell viability (Induction of Apoptosis in CLL Cells), patient sample TJK 340 #2 [1]: 56%
cell viability (Induction of Apoptosis in CLL Cells), patient sample TJK 375 [1]: 47%
cell viability (Induction of Apoptosis in CLL Cells), Av. [1]: 47%
cell viability of CLL cells [1]: minimal or insignificant changes in viability
cell viability in all the patient CLL samples [1]: minimally effected
apoptotic activity [2]: does not have apoptotic activity
Kd (BCL-2 [3]): ~40 nM

Molecule: CSCC[C@H](NC(=O)[C@H](CCCNC(=N)N)NC(=O)[C@H](CCCNC(=N)N)NC(=O)[C@H](CC(C)C)NC(=O)[C@H](CCC(=O)O)NC(=O)[C@H](CCCNC(=N)N)NC(=O)CNC(=O)[C@H](Cc1ccc(O)cc1)NC(=O)[C@H](CCCNC(=N)N)NC(=O)[C@H](CCC(N)=O)NC(=O)[C@H](C)NC(=O)[C@H](C)NC(=O)[C@H](Cc1c[nH]c2ccccc12)NC(=O)[C@H](CC(C)C)NC(=O)[C@@H](N)CC(N)=O)C(=O)N[C@@H](C)C(=O)N[C@@H](CC(=O)O)C(=O)N[C@@H](CCC(=O)O)C(=O)N[C@@H](Cc1ccccc1)C(=O)N[C@H](C(=O)N[C@@H](CC(=O)O)C(=O)N[C@@H](C)C(=O)N[C@@H](Cc1ccccc1)C(=O)N[C@@H](CCCCN)C(=O)N[C@@H](CCCCN)C(=O)N[C@@H](CS)C(=O)NCCCCCC(=O)N[C@H](CCCNC(=N)N)C(=O)N[C@H](CCCNC(=N)N)C(=O)N[C@H](CCCNC(=N)N)C(=O)N[C@H](CCCNC(=N)N)C(=O)N[C@H](CCCNC(=N)N)C(=O)N[C@H](CCCNC(=N)N)C(=O)N[C@H](CCCNC(=N)N)C(=O)N[C@H](CCCNC(=N)N)C(=O)O)C(C)C [SEQ ID NO: 6] (H-NLWAAQRYGRELRRMADEFVDAFKKC[Ahx][dR][dR][dR][dR][dR][dR][dR][dR]-OH; N-terminus and C-terminus assumed)
cell viability, dose response (CLL cells; patient TJK379 CLL cells, FIG. 3): dose-dependent decrease in cell viability
percentage cell viability (CLL cells; patient TJK379 CLL cells, as little as 15 μM peptide): dramatically reduced
intracellular levels of Bcl-2 (Bcl-2 [4]): significant reduction in intracellular levels of Bcl-2

Molecule: AVPIAQK-Ahx-(DArg)8 (AVPIAQK[Ahx][dR][dR][dR][dR][dR][dR][dR][dR]) [SEQ ID NO: 30, control peptide with poly(DArg)]
intracellular levels of Bcl-2 (Bcl-2 [4]): not observed

Molecule: NLWAAQRYGREARRMAAEFVDAFKK [SEQ ID NO: 4]
cell viability (Induction of Apoptosis in CLL Cells), patient sample JCB 178 [1]: 38%
cell viability (Induction of Apoptosis in CLL Cells), patient sample MA G15 [1]: 20%
cell viability (Induction of Apoptosis in CLL Cells), patient sample TJK 328 [1]: 26%
cell viability (Induction of Apoptosis in CLL Cells), patient sample TJK 340 #1 [1]: 46%
cell viability (Induction of Apoptosis in CLL Cells), patient sample TJK 340 #2 [1]: 45%
cell viability (Induction of Apoptosis in CLL Cells), patient sample TJK 375 [1]: 48%
cell viability (Induction of Apoptosis in CLL Cells), Av. [1]: 41%
cell viability of CLL cells [1]: minimal or insignificant changes in viability
cell viability in all the patient CLL samples [1]: minimally effected

Molecule: NLWAAQRYGREARRMAAEFVDAFKKC-Ahx-(DArg)8 (NLWAAQRYGREARRMAAEFVDAFKKC[Ahx][dR][dR][dR][dR][dR][dR][dR][dR]) [SEQ ID NO: 29, control BAD peptide with poly(DArg)]
change in viability (CLL cells): no change in viability
intracellular levels of Bcl-2 (Bcl-2 [4]): not observed

Molecule: NLWAAQRYGRELRRMSDEFVDSFKKC-Ahx*-(DArg)8 (NLWAAQRYGRELRRMSDEFVDSFKKC[Ahx][dR][dR][dR][dR][dR][dR][dR][dR]) [SEQ ID NO: 28]
change in viability (CLL cells): no change in viability
effect on cell viability (CLL cells; patient TJK379 CLL cells, even at 50 μM): negligible effect
cell viability of cancer cells (concluding statement) (CLL cells; poly-arginine fused peptide, CLL cells): dramatically reduce cell viability

binding to Bcl-2 (Bcl-2 family Bcl-2/x1): does not bind Bcl-2 family Bcl-2/x1
Molecule: acetyl-NLWAAQRYGRELRRMADEFVDAFKKC-CRQIKIWFQNRRMKWKK-amide [2336] (D-residues; cyclised or stapled) [compound 2336]
induction of apoptosis / killing ([5]; AML cells of patient AML-349, FIG. 9): showed less killing
induction of apoptosis ([5]; AML cells of patient AML-728, FIG. 8): does not
activity in reducing cell viability (697-neo cells): significantly less active than the 2335 peptide

B1: 2335 peptide, acetyl-NLWAAQRYGRELRRMADEFVDAFKKC-CRQIKIWFQNRRMKWKK-amide (SEQ ID NO: 31) (peptide)
peptide 1: Ac-NLWAAQRYGRELRRMADEFVDAFKKC
peptide 2: CRQIKIWFQNRRMKWKK-NH2
modifications: disulfide I:26-II:1
notes: C-C is a disulfide between two peptides, so it is written here as two chains; also called Bad S/A peptide disulfide linked to penetratin; BAD-BH3 peptide
binding result (Bcl-2 [6]): binds
